Assay results reported in patent publication US20260258025A1, “INHIBITORS OF TDP-43 AND TAU AGGREGATION” (Aquinnah Pharmaceuticals, inc., priority 2023, published 2026).
Entries after “also recorded” stand apart in the source; their conditions may differ.

How the values were obtained:
[1] = tested on: TDP-43 nuclear localization; test: TDP-43 localization analysis by immunofluorescence in MG-132 challenged iP11NA human motor neurons; assay type: cell-based
Procedure: Cell culture and differentiation of iPS Cells into motor neurons. Pluripotent stem cells were grown with mTeSR Plus medium on tissue culture dishes coated with Matrigel, and maintained in 5% CO2 incubators at 37° C. Stem cells were passaged as small aggregates of cells after 1 mM EDTA treatment. […] was added to the cultures for 16-24 h after dissociation to prevent cell death. The iP11NA iPS cell line was acquired from ALSTEM. This cell line was generated from pre-made footprint-free human iPS cells with DOX inducible Ngn2 that has been stably integrated into the human AAVS1 “Safe Harbor” site, and provides a convenient means to differentiate human iPS cells into neurons rapidly and efficiently. Motor neuron differentiation was achieved using a modified 5-day strategy.
This approach relies on neural induction through small molecule inhibition of SMAD signaling, accelerated neural differentiation through forced Ngn2 expression, and motor neuron patterning through the activation of retinoic acid and Sonic Hedgehog signaling pathways. In brief, pluripotent stem cells were dissociated to single cells using accutase and plated at a density of 80,000 cells per cm^2 on Matrigel-coated culture plates with mTeSR Plus medium supplemented with ROCK inhibitor (10 μM Y-27632, ATCC). When cells reached 50% confluency, medium was changed to differentiation medium BrainPhys medium supplemented with N2-A, SM1, […]. This time point was defined as day 0 (d0) of motor neuron differentiation. Treatment with small molecules was carried out as follows: 2 μg/mL Doxycyline, 10 μM SB431542, 100 nM LDN-193189, […] and 1 μM Smoothend agonist and 10 uM Edu. […]
A dose-responsive effect was further tested for Compound 183 using quantitative imaging analysis on the CellInsight™ CX7 High Content Analysis Platform. By comparing the intensity of TDP-43 staining in the nucleus and cytoplasm of human motor neurons, we determined Compound 183 could maintain nuclear TDP-43 from 370 nM-10 μM in the proteasome challenged motor neurons (see FIG. 2).

insoluble TDP-43 = test: Cell fractionation and immunoblot of TDP-43 in MG-132 challenged human motor neurons; assay type: cell-based; settings: 500 nM Compound 183 with MG-132 1 μM
Procedure: Cell culture and differentiation of iPS Cells into motor neurons. Pluripotent stem cells were grown with mTeSR Plus medium on tissue culture dishes coated with Matrigel, and maintained in 5% CO2 incubators at 37° C. Stem cells were passaged as small aggregates of cells after 1 mM EDTA treatment. […] was added to the cultures for 16-24 h after dissociation to prevent cell death. The iP11NA iPS cell line was acquired from ALSTEM. This cell line was generated from pre-made footprint-free human iPS cells with DOX inducible Ngn2 that has been stably integrated into the human AAVS1 “Safe Harbor” site, and provides a convenient means to differentiate human iPS cells into neurons rapidly and efficiently. Motor neuron differentiation was achieved using a modified 5-day strategy. […]
For analysis of TDP-43 cellular distribution, d14 motor neurons were lysed with Thermo Subcellular Protein Fractionation Kit for cultured cells and processed according to the manufacturer's instructions. […] Fluorescent secondary antibodies were used for band detection and the Kaleidoscope precision plus protein ladder for size estimation. iBright FL1500 imaging system and software were used to quantitate protein band signal. […]

Cc1cc(-c2ccc(C3CCN(C(C)C)CC3)cc2)sc1C(=O)N1CC[C@H](N)C1 [Compound 183, (S)-(3-aminopyrrolidin-1-yl)(5-(4-(1-isopropylpiperidin-4-yl)phenyl)-3-methylthiophen-2-yl)methanone]
nuclear TDP-43 staining (immunofluorescence) ([1]; 500 nM Compound 183, pretreated 1 hour and during 1 μM MG-132 for 20 hours, human motor neurons): preventing TDP-43 nuclear clearance; also recorded: TDP-43 staining in the nucleus was observed that was much more similar to that of unchallenged neurons | maintenance of nuclear TDP-43, dose response (nuclear vs cytoplasmic TDP-43 staining intensity) ([1]; MG-132 1 μM challenged human motor neurons, CX7 quantitative imaging, effective concentration range): maintaining nuclear TDP-43 in a dose-dependent manner | TDP-43 level in the nuclear fraction (immunoblot) (insoluble TDP-43): the levels of TDP-43 in the nucleus were maintained; also recorded: restoring nuclear TDP-43 localization
